Measured values taken from US10828305B2 (SHANGHAI PHARMACEUTICALS HOLDING CO., LTD., priority 2016, dated 2020).

What was measured:
ErbB2 kinase = ErbB2 kinase (Homo sapiens, UniProt P04626); assay: Enzymatic experiment on ErbB2 (HTRF kinEASE-TK); format: biochemical; conditions: ATP 4 μM; read-out: Kinase IC50 (nM) in vitro ErbB2
How it was run: (§1)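 HTRF kinEASE-TK with biotinylated TK substrate in HEPES pH 7.0 buffer containing MnCl2, MgCl2 and DTT; ErbB2 at 0.06 ng/μl with 4 μM ATP, EGFR at 0.06 units/μl with 1.65 μM ATP, 30 min at room temperature after 5 min enzyme/substrate–compound preincubation. Ten-point 3-fold dilutions; Eu antibody/SA-XL665 detection, 665/620 ratio.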

EGFR kinase = EGFR kinase (Homo sapiens, UniProt P00533); assay: Enzymatic experiment on EGFR (HTRF kinEASE-TK); format: biochemical; conditions: ATP 1.65 μM; read-out: Kinase IC50 (nM) in vitro EGFR
Sequence of EGFR kinase (P00533 25-1210): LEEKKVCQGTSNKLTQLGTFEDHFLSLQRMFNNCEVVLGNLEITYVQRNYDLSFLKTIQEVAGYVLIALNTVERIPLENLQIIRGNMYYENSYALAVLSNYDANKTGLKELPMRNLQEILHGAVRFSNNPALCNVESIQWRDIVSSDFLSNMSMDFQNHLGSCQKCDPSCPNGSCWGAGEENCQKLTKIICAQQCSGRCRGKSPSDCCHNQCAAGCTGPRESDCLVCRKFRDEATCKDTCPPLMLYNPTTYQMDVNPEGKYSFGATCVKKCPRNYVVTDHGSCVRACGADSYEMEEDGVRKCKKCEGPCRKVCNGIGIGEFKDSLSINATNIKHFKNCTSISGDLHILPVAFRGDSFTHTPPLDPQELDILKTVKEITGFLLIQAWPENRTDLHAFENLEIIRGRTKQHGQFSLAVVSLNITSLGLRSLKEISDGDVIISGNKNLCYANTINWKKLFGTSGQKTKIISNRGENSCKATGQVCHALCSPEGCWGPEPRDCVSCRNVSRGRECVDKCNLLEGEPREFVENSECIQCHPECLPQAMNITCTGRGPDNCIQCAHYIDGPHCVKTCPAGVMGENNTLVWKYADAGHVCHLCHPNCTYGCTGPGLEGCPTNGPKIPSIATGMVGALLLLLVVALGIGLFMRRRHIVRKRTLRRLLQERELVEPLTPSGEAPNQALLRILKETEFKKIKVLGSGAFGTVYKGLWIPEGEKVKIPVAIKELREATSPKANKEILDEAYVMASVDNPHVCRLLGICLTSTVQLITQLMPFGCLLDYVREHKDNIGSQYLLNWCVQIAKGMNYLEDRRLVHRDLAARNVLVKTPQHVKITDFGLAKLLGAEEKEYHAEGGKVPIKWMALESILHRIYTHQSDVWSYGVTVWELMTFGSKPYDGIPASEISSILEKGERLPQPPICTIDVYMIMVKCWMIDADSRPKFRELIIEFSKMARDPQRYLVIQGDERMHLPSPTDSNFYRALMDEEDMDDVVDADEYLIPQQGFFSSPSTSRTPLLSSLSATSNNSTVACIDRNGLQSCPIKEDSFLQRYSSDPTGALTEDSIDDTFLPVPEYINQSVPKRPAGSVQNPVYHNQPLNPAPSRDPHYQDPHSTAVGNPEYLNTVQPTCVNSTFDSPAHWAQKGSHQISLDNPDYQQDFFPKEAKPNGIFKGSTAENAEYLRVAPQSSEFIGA
How it was run: as §1

BT-474 = assay: Proliferation inhibition assay in vitro, BT-474 (CellTiter-Glo); format: cell-based; conditions: Homo sapiens, 72 hours, read-out: IC50(nM) cell BT-474
How it was run: (§2)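 Cells were seeded at 8.8×10^4 cells/mL for BT-474 or 6.6×10^4 cells/mL for N87 and grown overnight. Compound was added at 9 concentrations in duplicate for 72 h at 37 °C, 5% CO2. Viability was measured by CellTiter-Glo.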

N87 = assay: Proliferation inhibition assay in vitro, N87 (CellTiter-Glo); format: cell-based; conditions: Homo sapiens; 72 hours; read-out: IC50(nM) cell N87
How it was run: as §2

Sequence of ErbB2 kinase (P04626 23-1255): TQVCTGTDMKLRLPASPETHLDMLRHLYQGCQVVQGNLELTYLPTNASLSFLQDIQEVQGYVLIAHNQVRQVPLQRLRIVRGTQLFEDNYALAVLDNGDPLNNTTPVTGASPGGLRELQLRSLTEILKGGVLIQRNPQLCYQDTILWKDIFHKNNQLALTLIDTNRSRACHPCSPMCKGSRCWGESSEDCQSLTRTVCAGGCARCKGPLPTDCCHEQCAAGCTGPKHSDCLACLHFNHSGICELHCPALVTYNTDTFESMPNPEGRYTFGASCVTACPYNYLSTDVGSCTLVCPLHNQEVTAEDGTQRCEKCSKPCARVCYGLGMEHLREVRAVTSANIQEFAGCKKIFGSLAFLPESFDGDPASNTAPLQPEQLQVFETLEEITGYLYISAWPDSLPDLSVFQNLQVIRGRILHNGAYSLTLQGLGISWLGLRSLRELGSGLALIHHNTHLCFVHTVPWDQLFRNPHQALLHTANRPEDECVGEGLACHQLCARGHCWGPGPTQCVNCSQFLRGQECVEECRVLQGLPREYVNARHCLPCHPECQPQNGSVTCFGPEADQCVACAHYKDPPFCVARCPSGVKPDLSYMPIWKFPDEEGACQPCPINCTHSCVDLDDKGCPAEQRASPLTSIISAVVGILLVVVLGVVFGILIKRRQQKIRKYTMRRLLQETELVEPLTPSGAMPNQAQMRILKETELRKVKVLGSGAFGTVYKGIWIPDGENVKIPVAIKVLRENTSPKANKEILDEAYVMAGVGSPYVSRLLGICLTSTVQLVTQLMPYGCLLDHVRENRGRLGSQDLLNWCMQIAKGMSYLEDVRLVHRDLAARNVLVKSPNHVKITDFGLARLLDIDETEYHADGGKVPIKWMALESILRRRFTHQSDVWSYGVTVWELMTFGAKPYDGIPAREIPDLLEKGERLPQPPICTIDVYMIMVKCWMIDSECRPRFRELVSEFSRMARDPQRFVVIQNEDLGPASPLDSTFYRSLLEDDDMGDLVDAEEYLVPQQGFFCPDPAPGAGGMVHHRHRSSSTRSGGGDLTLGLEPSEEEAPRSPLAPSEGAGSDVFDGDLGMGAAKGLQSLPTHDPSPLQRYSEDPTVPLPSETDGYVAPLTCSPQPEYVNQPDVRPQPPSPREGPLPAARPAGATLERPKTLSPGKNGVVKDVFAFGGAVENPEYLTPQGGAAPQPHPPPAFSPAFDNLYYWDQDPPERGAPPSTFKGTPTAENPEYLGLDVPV

Structure (SMILES)	IC50 (ErbB2 kinase) [nM]	IC50 (EGFR kinase) [nM]	IC50 (BT-474) [nM]	IC50 (N87) [nM]
Cc1cc(Nc2ncnc3ccc(-c4ccc(CN(C)C)o4)cc23)ccc1Oc1cc2nncn2cn1 [Embodiment 59, N-(4-([1,2,4]triazolo[4,3-c]pyrimidin-7-yloxy)-3-methylphenyl)-6-(5-((dimethylamino)methyl)furan-2-yl)-4-aminoquinazoline]	5.7	40.2	281	61.1
C=C(F)C(=O)Nc1ccc2ncnc(Nc3ccc(Oc4cc5nncn5cn4)c(C)c3)c2c1 [Embodiment 16, N-(4-((4-([1,2,4]triazolo[4,3-c]pyrimidin-7-yloxy)-3-methylphenyl)amino)quinazolin-6-yl)-2-fluoroacrylamide]	3.4	32.3	7.7	5.6
Cc1cc(Nc2ncnc3ccc(NC4=NC5(CO4)CN(C(=O)OC(C)(C)C)C5)cc23)ccc1Oc1cc2nncn2cn1 [Embodiment 26]	3.8	96.8	122	130
Cc1cc(NC(=O)Nc2ccc3ncnc(Nc4ccc(Oc5cc6nncn6cn5)c(C)c4)c3c2)n[nH]1 [Embodiment 70, 1-(4-((4-([1,2,4]triazolo[4,3-c]pyrimidin-7-yloxy)-3-methylphenyl)amino)quinazolin-6-yl)-3-(5-methyl-1H-pyrazol-3-yl)urea]	3.3	73.4	172	852
Cc1cc(Nc2ncnc3ccc(NC(=O)/C=C/CN(C)C)cc23)ccc1Oc1cc2nncn2cn1 [Embodiment 57, (E)-N-(4-((4-([1,2,4]triazolo[4,3-c]pyrimidin-7-yloxy)-3-methylphenyl)amino)quinazolin-6-yl)-4-(dimethylamino)-2-butenamide]	1.7	2.7	5.6	12.8
CCOC(=O)Nc1cccc(-c2ccc3ncnc(Nc4ccc(Oc5cc6nncn6cn5)c(C)c4)c3c2)c1 [Embodiment 38, ethyl (3-(4-((4-([1,2,4]triazolo[4,3-c]pyrimidin-7-yloxy)-3-methylphenyl)amino)quinazoline-6-yl)phenyl)carbamate]	5	28.1	186	86.6
Cc1cc(Nc2ncnc3ccc(NC(=S)NC(C)(CO)CO)cc23)ccc1Oc1cc2nncn2cn1 [Embodiment 12, 1-(4-((4-([1,2,4]triazolo[4,3-c]pyrimidin-7-yloxy)-3-methylphenyl)amino)quinazoline-6-yl)-3-(1,3-dihydroxy-2-methylpropan-2-yl)thiourea]	4.3	231	136	482
Cc1cc(Nc2ncnc3ccc(NC4=NC5(CCOCC5)CO4)cc23)ccc1Oc1cc2nncn2cn1 [Embodiment 47, N^4-(4-([1,2,4]triazolo[4,3-c]pyrimidin-7-yloxy)-3-methylphenyl)-N^6-(3,8-dioxa-1-azaspiro[4.5]dec-1-en-2-yl)quinazoline-4,6-diamine]	2.6	31.4	35	68.4
Cc1cc(Nc2ncnc3ccc(NC4=NC5(CCCC5)CO4)cc23)ccc1Oc1cc2nncn2cn1 [Embodiment 87]	1.9	6.5	15.3	25.3
C=CC(=O)NC/C=C/c1ccc2ncnc(Nc3ccc(Oc4cc5nncn5cn4)c(C)c3)c2c1 [Embodiment 53, (E)-N-(3-(4-((4-([1,2,4]triazolo[4,3-c]pyrimidin-7-yloxy)-3-methylphenyl)amino)quinazolin-6-yl)allyl)acrylamide]	3.58	57.9	5.9	6.2
Cc1cc(Nc2ncnc3ccc(-c4ccc(N)nn4)cc23)ccc1Oc1cc2nncn2cn1 [Embodiment 118, N-(4-([1,2,4]triazolo[4,3-c]pyrimidin-7-yloxy)-3-methylphenyl)-6-(6-aminopyridazin-3-yl)quinazolin-4-amine]	8.59	28.4	73.4	389
Cc1cc(Nc2ncnc3ccc(-c4cccc(NC(=O)/C=C/CN(C)C)c4)cc23)ccc1Oc1cc2nncn2cn1 [Embodiment 76, (E)-N-(3-(4-((4-([1,2,4]triazolo[4,3-c]pyrimidin-7-yloxy)-3-methylphenyl)amino)quinazolin-6-yl)phenyl)-4-(dimethylamino)but-2-enamide]	4.9	82.2	27.9	42.8
C=CC(=O)Nc1ccc(-c2ccc3ncnc(Nc4ccc(Oc5cc6nncn6cn5)c(C)c4)c3c2)c(C)n1 [Embodiment 56, N-(5-(4-((4-([1,2,4]triazolo[4,3-c]pyrimidin-7-yloxy)-3-methylphenyl)amino)quinazolin-6-yl)-6-methylpyridin-2-yl)acrylamide]	34	2450	35.4	466
CCNC(=O)Nc1cccc(-c2ccc3ncnc(Nc4ccc(Oc5cc6nncn6cn5)c(C)c4)c3c2)c1 [Embodiment 50, 1-(3-(4-((4-([1,2,4]triazolo[4,3-c]pyrimidin-7-yloxy)-3-methylphenyl)amino)quinazolin-6-yl)phenyl)-3-ethylurea]	3.6	27.8	104	116
Cc1cc(Nc2ncnc3ccc(NC(=O)/C=C/[C@H]4CCCN4C)cc23)ccc1Oc1cc2nncn2cn1 [Embodiment 94, (R,E)-N-(4-((4-([1,2,4]triazolo[4,3-c]pyrimidin-7-yloxy)-3-methylphenyl)amino)quinazolin-6-yl)-3-(1-methylpyrrolidin-2-yl)acrylamide]	2.99	3.16	4.8	4.7
Cc1cc(Nc2ncnc3ccc(NC4=NCC5(CCN(C)CC5)O4)cc23)ccc1Oc1cc2nncn2cn1 [Embodiment 31, N^4-(4-([1,2,4]triazolo[4,3-c]pyrimidin-7-yloxy)-3-methylphenyl)-N^6-(8-methyl-1-oxa-3,8-diazaspiro[4.5]dec-2-en-2-yl)quinazoline-4,6-diamine]	10.1	57.4	187	433
Cc1cc(Nc2ncnc3ccc(NC4=N[C@@H](C)CO4)cc23)ccc1Oc1cc2nncn2cn1 [Embodiment 8]	7.8	115	43.4	68.7
C=CC(=O)N1CCC(Oc2cc3c(Nc4ccc(Oc5cc6nncn6cn5)c(Cl)c4)ncnc3cc2OC)CC1 [Embodiment 92, 1-(4-((4-((4-([1,2,4]triazolo[4,3-c]pyrimidin-7-yloxy)-3-chlorophenyl)amino)-7-methoxyquinazolin-6-yl)oxy)piperidin-1-yl)prop-2-en-1-one]	0.44	0.7	2.2	3.4
Cc1cc(Nc2ncnc3ccc(NC4=NC(C)(C)CS4)cc23)ccc1Oc1cc2nncn2cn1 [Embodiment 9, N^4-(4-([1,2,4]triazolo[4,3-c]pyrimidin-7-yloxy)-3-methylphenyl)-N^6-(4,4-dimethyl-4,5-dihydrothiazol-2-yl)quinazoline-4,6-diamine]	7.4	35.9	33.4	39.5
COc1cc2ncnc(Nc3ccc(Oc4cc5nncn5cn4)c(C)c3)c2cc1OC1CCN(C(=O)/C=C/CN(C)C)CC1 [Embodiment 23]	5.2	0.7	79.5	55.7
